For orientation: Kd means the free concentration of one partner at which half of the binding sites on the other are occupied at equilibrium, for simple one-to-one binding. As a reminder, the pKa is the pH at which an ionisable group is half protonated.

Read-outs that look alike come from different tables or passages of the source.

These results are taken from paper PMC11259710, “Distinct roles of the major binding residues in the cation-binding pocket of the melibiose transporter MelB” (The Journal of Biological Chemistry, 2024).

Series [1] deals with D55C MelBSt expressed in E. coli DW2 cells. The experiment in a line: [3H]melibiose transport assay in intact E. coli DW2 cells, CCCP effect, D55C MelBSt. In kind it is cell-based, Salmonella enterica serovar Typhimurium. Particulars: D55C mutant. Here is the method: (§1) E. coli DW2 cells transformed with a given plasmid were grown in Luria-Bertani (LB) broth with 100 mg/L ampicillin in a 37 °C shaker. The overnight cultures were diluted by 5% to fresh LB broth with 0.5% glycerol and 100 mg/L ampicillin and shaken at 30 °C for 5 h. The cells were washed with 50-ml 100 mM KPi, pH 7.5 three times, followed by washing with the assay buffer (100 mM KPi, pH 7.5, 10 mM MgSO4). The cell pellets were resuspended and adjusted to A420 = 10 (∼0.7 mg proteins/ml) with the assay buffer. The transport assay was performed at 0.4 mM [^3H]melibiose (specific activity of 10 mCi/mmol) in the absence of Na^+ and Li^+ or the presence of Na^+ or Li^+ as described ([4], [35]) to test the three transport model coupling to H^+, Na^+, or Li^+, respectively. The transport time courses were carried out by quenching the cells at zero, 5 s, 10 s, 30 s, 1 m, 2 m, 5 m, 10 m, and 30 m by dilution and fast filtration. The filters were subjected to radioactivity measurements using a liquid scintillation counter.
(§2) The CCCP effect on the transport activity at varied pH conditions in the absence of Na^+ and Li^+ was conducted by incubating the extensively washed Na^+-free, Li^+-free cells with 10 μM CCCP for 10 min prior to the transport assay.
(§3) E. coli DW2 cells expressing the WT MelBSt, D55C, or D59C mutants were prepared as described above. […]

Series [2] relates to WT MelBSt expressed in E. coli DW2 cells. In words: [3H]melibiose transport assay in intact E. coli DW2 cells, CCCP effect, WT MelBSt. In kind it is cell-based, Salmonella enterica serovar Typhimurium. On the procedure:
as §1, §2, §3

Series [3] deals with T1, WT MelBSt (Salmonella typhimurium, UniProt P30878).
T1 construct: His10 (C); made in house; host or cells: E. coli DW2
Particulars: cited from earlier work.

In another series the target is T2, D55C MelBSt mutant (Salmonella typhimurium, UniProt P30878, D55C).
T2 construct: His10 (C); made in house; host or cells: E. coli DW2
In kind it is binding, Salmonella enterica serovar Typhimurium. Particulars: for Cation binding by ITC: 40 mM NaCl or LiCl titrant, absence or presence of saturating melibiose; for Kd: ITC 25 °C. On the procedure: All ITC ligand-binding assays were performed with the TA Instruments (Nano-ITC device) as described ([15]), which yields the exothermic binding as a positive peak. […] MelBSt protein samples were buffer-matched to the assay buffer by dialysis.
(§4) All samples were degassed using a TA Instruments Degassing Station (model 6326) for 15 min. During the titration, the heat changes were collected at 25 °C, and data processing was performed with the NanoAnalyze (version 3.7.5 software) provided with the instrument. The normalized heat changes were subtracted from the heat of dilution elicited by the last few injections, where no further binding occurred, and the corrected heat changes were plotted against the mole ratio of titrant versus titrand. The binding association constant (Ka) values were obtained by fitting the data using the one-site independent-binding model included in the NanoAnalyze software (version 3.7.5).
(In ITC the heat of successive injections is recorded.)

The target in series [4] is T1, WT MelBSt. The experiment in a line: ITC ligand-binding assay, purified WT MelBSt. Set-up: species or system Salmonella enterica serovar Typhimurium. Particulars: for Kd: ITC, read-out: Kd of melibiose binding. On the procedure: All ITC ligand-binding assays were performed with the TA Instruments (Nano-ITC device) as described ([15]), which yields the exothermic binding as a positive peak. In a typical experiment, the titrand (MelBSt) placed in the ITC Sample Cell was titrated with the specified titrant Na^+, Li^+, melibiose, or α-NPG (placed in the Syringe) in the assay buffer by an incremental injection of 2-μL aliquots at an interval of 300 s at a constant stirring rate of 250 rpm (nano-ITC). MelBSt protein samples were buffer-matched to the assay buffer by dialysis. For measuring Na^+ or Li^+ binding, 100 mM choline chloride was supplemented into the Na^+-free buffer.
as §4

In a further series the target is Asp59 (UniProt position 59, WDAINDPIMGW). The experiment in a line: ITC. Particulars: cited from earlier work.
Where [5] appears, read: 10 μM CCCP, all tested external pH conditions, zero, 2 m, 10 m.
[6] abbreviates: cells pre-incubated with 10 μM CCCP, 0.4 mM melibiose, no Na+ and Li+, pH 7.5.
Setting [7] is: pH 7.5, 100 mM Na+ vs no Na+, from Kd values of ref [8].

Consider `N#CC(C#N)=NNc1cccc(Cl)c1` [CCCP, carbonyl cyanide m-chlorophenylhydrazone], for which the “CCCP effect on melibiose transport at varied external pH” value in series [1] (setting [5]) and in series [2] (setting [5]) was “completely abolished” in each case. Further, the “CCCP effect on H+-coupled melibiose transport activity” value in series [1] (setting [6]) and in series [2] (setting [6]) was “completely inhibited” each time.
Regarding `[H+]` [H^+], the “absolute dissociation constant for H+ (pKa value)” value on WT MelBSt [3] (absence of melibiose, ref [15]) is recorded as 6.25; at WT MelBSt [3] (presence of melibiose, ref [15]), 6.5. Also, the Kd at WT MelBSt [3] (absence of melibiose, ref [15], read-out: absolute KD(H+)) was 0.56 µM; on WT MelBSt [3] (presence of melibiose, ref [15], read-out: absolute KD(H+)), 0.26 µM. Also, the Cooperativity number result on WT MelBSt [3] (melibiose and H+, based on the effect of sugar on the H+ affinity, ref [15]) is listed as “less than 2”.
As for `[Li+]` [Li^+], the “Cooperativity number (ratio of Kd values of melibiose and cation in absence or presence of the other)” value on WT MelBSt [3] (melibiose and Li+, ref [6]) is recorded as approximately 5. Further, at D55C MelBSt mutant, the “Cation binding by ITC” value was “eliminated the binding”.
In the case of `OC[C@H]1O[C@H](OCC2O[C@@H](O)[C@H](O)[C@@H](O)[C@@H]2O)[C@H](O)[C@@H](O)[C@H]1O` (stereo partly drawn) [Melibiose, melibiose], the Kd is 6190 ± 590 µM on WT MelBSt [4] (pH 6.25, Na+-free buffer); 8500 ± 210 µM on WT MelBSt [4] (pH 8.5, Na+-free buffer); 1090 ± 60 µM on WT MelBSt [3] (WT MelBSt, pH 7.5, 100 mM Na+, ITC 25 °C, ref [8], read-out: Kd of melibiose binding); 9280 ± 230 µM at WT MelBSt [3] (WT MelBSt, pH 7.5, no Na+, ITC 25 °C, ref [8], read-out: Kd of melibiose binding); 5090 ± 150 µM on D55C MelBSt mutant (pH 7.5, 100 mM Na+, read-out: Kd of melibiose binding); 5820 ± 460 µM on D55C MelBSt mutant (pH 7.5, no Na+, read-out: Kd of melibiose binding). Further, the “Affinity change of melibiose with pH” value at WT MelBSt [4] (pH 6.25 vs pH 8.5, no Na+) is recorded as “+1.37-fold”. Moreover, the “Affinity change of melibiose with Na+” value is “+8.51-fold” on WT MelBSt [4] (setting [7]); 8.51 fold at WT MelBSt [4] (pH 7.5, 100 mM Na+ vs no Na+, from Kd values of ref [8], listed as melibiose); “+1.14-fold” on D55C MelBSt mutant (pH 7.5, 100 mM Na+ vs no Na+).
As for `[Na+]` [Na^+], the “Cooperativity number (ratio of Kd values of melibiose and cation in absence or presence of the other)” value at WT MelBSt [3] (melibiose and Na+, ref [15]) is on record as “approximately 8”. In addition, the “Cation binding by ITC” value on D55C MelBSt mutant is reported as “eliminated the binding”.
In the case of `O=[N+]([O-])c1ccc(O[C@H]2O[C@H](CO)[C@H](O)[C@H](O)[C@H]2O)cc1` [α-NPG, 4-nitrophenyl-α-D-galactopyranoside], on WT MelBSt [4] (setting [7]), the “Affinity change of α-NPG with Na+” value was “+ 1.68-fold”. The Kd at WT MelBSt [3] (WT MelBSt, pH 7.5, 100 mM Na+, ITC, ref [8], read-out: Kd of α-NPG binding) is 25.7 ± 4.42 µM; on WT MelBSt [3] (WT MelBSt, pH 7.5, no Na+, ITC, ref [8], read-out: Kd of α-NPG binding) it was 43.2 ± 0.62 µM; at D55C MelBSt mutant (pH 7.5, 100 mM Na+, read-out: Kd of α-NPG binding), 13.5 ± 1.38 µM; at D55C MelBSt mutant (pH 7.5, no Na+, read-out: Kd of α-NPG binding) it was 15.1 ± 1.86 µM.
“Melibiose permease MelB (MelBSt) (Salmonella enterica serovar Typhimurium)”: the pKa result is “approximately 6.5” with Asp59 (Melibiose present (per the Introduction). The Discussion sentence does not specify the sugar state.) and 6.25 in the series with Asp59 (No melibiose, no Na+/Li+ bound).
